# Source: paper PMC8632988, “Inhibition of SYK and cSrc kinases can protect bone and cartilage in preclinical models of osteoarthritis and rheumatoid arthritis” (Scientific Reports, 2021)
# “And” between values parts separate entries of the source, which are not always exact repeats. Equal entries are not always repeated.
# Test system: DBA/1 mice, CIA model
# Assay: Collagen-induced arthritis model in mice
# Type: in vivo, mouse
# Details: QD
# Experimental: Collagen-induced arthritis (CIA) model was performed at Bolder BioPATH, USA. Study design and animal usage was approved by Bolder BioPATH’s Institutional Animal Care and Use Committee. CIA was induced in 6–7 week old male DBA/1 mice with body weight of 15–26 g (Harlan, Inc) by intradermal injection of Freund’s Complete Adjuvant (Difco) containing bovine type II collagen (Bolder BioPATH) on day 0 and again on day 21 according to the standard protocol. […] After that mice were randomized into six groups: a control group of four, vehicle group and four treatment groups of ten mice each. […] Each paw was scored daily for inflammation. Therapeutic and prophylactic paws were considered. At study termination mice were euthanized by CO2 inhalation followed by cervical dislocation. Fore paws, hind paws, and knees were removed for microscopy.
# Mice were weighed on arthritis days 1, 3, 5, 7, 9, and 11 (prior to necropsy). Daily clinical scores were given for each of the paws (right front, left front, right rear, left rear) on days 1–11 using the following criteria:
# After 1–2 days in fixative and 4–5 days in 5% formic acid for decalcification, tissues were trimmed, processed for paraffin embedding, sectioned at 8 µm and stained with toluidine blue. Hind paws and knees were embedded and sectioned in the frontal plane. Two joints from each animal were processed for histopathology evaluation. The joints were then scored by two independent readers as indicated below. When scoring, severity of changes as well as number of individual joints affected were considered. When only 1–3 joints of the paws or ankles out of a possibility of numerous metacarpal/metatarsal/digit or tarsal/tibiotarsal joints were affected, an arbitrary assignment of a maximum score of 1, 2 or 3 for parameters below was given depending on severity of changes. If more than 3 joints were involved, the criteria below were applied to the most severely affected/majority of joints.
compound,measurement,setting,value
"CN(Cc1cnc2nc(N)nc(N)c2n1)c1ccc(C(=O)N[C@@H](CCC(=O)O)C(=O)O)cc1 [MTX, methotrexate, reference compound]","% inhibition to Vehicle, Paw Score Total AUC Sum (d1-11)",1.5 mg/kg PO,12%
same,Paw Score Total AUC Sum (d1-11),"1.5 mg/kg PO, group Mean",28.46
same,Paw Score Total AUC Sum (d1-11),"1.5 mg/kg PO, individual animals",19.25 and 28.75 and 18.25 and 23.38 and 30.63 and 34.25 and 31.00 and 24.88 and 33.25 and 41.00
same,"% inhibition to Vehicle, Average Paw Score","Day 1, 1.5 mg/kg PO",0%
same,Average Paw Score Per Arthritis Day (All Paws),"Day 1, 1.5 mg/kg PO, group Mean",0.80
same,Average Paw Score Per Arthritis Day (All Paws),"Day 1, 1.5 mg/kg PO, individual animals, 1.5 mg/kg",0.50 and 1.00 and 1.50
same,"% inhibition to Vehicle, Average Paw Score","Day 2, 1.5 mg/kg PO",19%
same,Average Paw Score Per Arthritis Day (All Paws),"Day 2, 1.5 mg/kg PO, group Mean",1.48
same,Average Paw Score Per Arthritis Day (All Paws),"Day 2, 1.5 mg/kg PO, individual animals, 1.5 mg/kg",0.50 and 1.25 and 1.50 and 1.00 and 2.00 and 1.75 and 2.50
same,"% inhibition to Vehicle, Average Paw Score","Day 3, 1.5 mg/kg PO",20%
same,Average Paw Score Per Arthritis Day (All Paws),"Day 3, 1.5 mg/kg PO, group Mean",2.13
same,Average Paw Score Per Arthritis Day (All Paws),"Day 3, 1.5 mg/kg PO, individual animals, 1.5 mg/kg",0.75 and 1.75 and 2.00 and 2.50 and 2.75 and 3.00
same,"% inhibition to Vehicle, Average Paw Score","Day 4, 1.5 mg/kg PO",10%
same,Average Paw Score Per Arthritis Day (All Paws),"Day 4, 1.5 mg/kg PO, group Mean",2.85
same,Average Paw Score Per Arthritis Day (All Paws),"Day 4, 1.5 mg/kg PO, individual animals, 1.5 mg/kg",1.75 and 3.00 and 2.00 and 2.25 and 2.50 and 2.75 and 4.00
same,"% inhibition to Vehicle, Average Paw Score","Day 5, 1.5 mg/kg PO",9%
same,Average Paw Score Per Arthritis Day (All Paws),"Day 5, 1.5 mg/kg PO, group Mean",3.15
same,Average Paw Score Per Arthritis Day (All Paws),"Day 5, 1.5 mg/kg PO, individual animals, 1.5 mg/kg",2.25 and 2.00 and 4.00 and 2.75 and 4.75
same,"% inhibition to Vehicle, Average Paw Score","Day 6, 1.5 mg/kg PO",11%
same,Average Paw Score Per Arthritis Day (All Paws),"Day 6, 1.5 mg/kg PO, individual animals, 1.5 mg/kg",2.50 and 2.00 and 2.25 and 4.00 and 2.75 and 4.75
same,"% inhibition to Vehicle, Average Paw Score","Day 7, 1.5 mg/kg PO",12%
same,Average Paw Score Per Arthritis Day (All Paws),"Day 7, 1.5 mg/kg PO, individual animals, 1.5 mg/kg",2.50 and 2.00 and 2.25 and 4.00 and 2.75 and 4.75
same,"% inhibition to Vehicle, Average Paw Score","Day 8, 1.5 mg/kg PO",13%
same,Average Paw Score Per Arthritis Day (All Paws),"Day 8, 1.5 mg/kg PO, individual animals, 1.5 mg/kg",2.50 and 2.00 and 3.75 and 4.00 and 2.75 and 4.75
same,"% inhibition to Vehicle, Average Paw Score","Day 9, 1.5 mg/kg PO",13%
same,Average Paw Score Per Arthritis Day (All Paws),"Day 9, 1.5 mg/kg PO, individual animals, 1.5 mg/kg",2.50 and 2.00 and 3.00 and 4.00 and 4.25 and 2.75 and 3.75 and 5.00
same,"% inhibition to Vehicle, Average Paw Score","Day 10, 1.5 mg/kg PO",12%
same,Average Paw Score Per Arthritis Day (All Paws),"Day 10, 1.5 mg/kg PO, individual animals, 1.5 mg/kg",2.50 and 2.00 and 4.75 and 4.50 and 2.75 and 4.00 and 5.00
same,"% inhibition to Vehicle, Average Paw Score","Day 11, 1.5 mg/kg PO",12%
same,Average Paw Score Per Arthritis Day (All Paws),"Day 11, 1.5 mg/kg PO, individual animals, 1.5 mg/kg",2.50 and 2.00 and 4.75 and 4.50 and 2.75 and 4.00 and 5.00
same,"% inhibition to Vehicle, Total AUC Sum (d1-11)",MTX 1.5 mg/kg PO,21%
same,Summed Prophylactic (Non-Enrollment) Paw Score,"MTX 1.5 mg/kg PO, Day 1, group mean",0.00
same,Summed Prophylactic (Non-Enrollment) Paw Score,"MTX 1.5 mg/kg PO, Day 1, individual animals",0
same,"% inhibition to Vehicle, Summed Prophylactic (Non-Enrollment) Paw Score","MTX 1.5 mg/kg PO, Day 2",38%
same,Summed Prophylactic (Non-Enrollment) Paw Score,"MTX 1.5 mg/kg PO, Day 2, group mean",1.60
same,Summed Prophylactic (Non-Enrollment) Paw Score,"MTX 1.5 mg/kg PO, Day 2, individual animals",0 and 2 and 1 and 5 and 4
same,"% inhibition to Vehicle, Summed Prophylactic (Non-Enrollment) Paw Score","MTX 1.5 mg/kg PO, Day 3",30%
same,Summed Prophylactic (Non-Enrollment) Paw Score,"MTX 1.5 mg/kg PO, Day 3, group mean",3.30
same,Summed Prophylactic (Non-Enrollment) Paw Score,"MTX 1.5 mg/kg PO, Day 3, individual animals",0 and 3 and 1 and 4 and 7 and 8 and 5 and 2
same,"% inhibition to Vehicle, Summed Prophylactic (Non-Enrollment) Paw Score","MTX 1.5 mg/kg PO, Day 4",20%
same,Summed Prophylactic (Non-Enrollment) Paw Score,"MTX 1.5 mg/kg PO, Day 4, group mean",5.10
same,Summed Prophylactic (Non-Enrollment) Paw Score,"MTX 1.5 mg/kg PO, Day 4, individual animals",3 and 4 and 1 and 6 and 10
same,"% inhibition to Vehicle, Summed Prophylactic (Non-Enrollment) Paw Score","MTX 1.5 mg/kg PO, Day 5",19%
same,Summed Prophylactic (Non-Enrollment) Paw Score,"MTX 1.5 mg/kg PO, Day 5, group mean",5.90
same,Summed Prophylactic (Non-Enrollment) Paw Score,"MTX 1.5 mg/kg PO, Day 5, individual animals",5 and 4 and 1 and 9 and 12 and 10 and 6
same,"% inhibition to Vehicle, Summed Prophylactic (Non-Enrollment) Paw Score","MTX 1.5 mg/kg PO, Day 6",21%
same,Summed Prophylactic (Non-Enrollment) Paw Score,"MTX 1.5 mg/kg PO, Day 6, group mean",6.00
same,Summed Prophylactic (Non-Enrollment) Paw Score,"MTX 1.5 mg/kg PO, Day 6, individual animals",6 and 4 and 1 and 9 and 12 and 10
same,"% inhibition to Vehicle, Summed Prophylactic (Non-Enrollment) Paw Score","MTX 1.5 mg/kg PO, Day 7",22%
same,Summed Prophylactic (Non-Enrollment) Paw Score,"MTX 1.5 mg/kg PO, Day 7, group mean",6.10
same,Summed Prophylactic (Non-Enrollment) Paw Score,"MTX 1.5 mg/kg PO, Day 7, individual animals",6 and 5 and 4 and 1 and 9 and 12 and 10
same,"% inhibition to Vehicle, Summed Prophylactic (Non-Enrollment) Paw Score","MTX 1.5 mg/kg PO, Day 8",22%
same,Summed Prophylactic (Non-Enrollment) Paw Score,"MTX 1.5 mg/kg PO, Day 8, group mean",6.30
same,Summed Prophylactic (Non-Enrollment) Paw Score,"MTX 1.5 mg/kg PO, Day 8, individual animals",6 and 5 and 4 and 2 and 10 and 12
same,"% inhibition to Vehicle, Summed Prophylactic (Non-Enrollment) Paw Score","MTX 1.5 mg/kg PO, Day 9",20%
same,Summed Prophylactic (Non-Enrollment) Paw Score,"MTX 1.5 mg/kg PO, Day 9, group mean",6.80
same,Summed Prophylactic (Non-Enrollment) Paw Score,"MTX 1.5 mg/kg PO, Day 9, individual animals",6 and 5 and 4 and 3 and 11 and 13 and 10 and 7
same,"% inhibition to Vehicle, Summed Prophylactic (Non-Enrollment) Paw Score","MTX 1.5 mg/kg PO, Day 10",16%
same,Summed Prophylactic (Non-Enrollment) Paw Score,"MTX 1.5 mg/kg PO, Day 10, group mean",7.40
same,Summed Prophylactic (Non-Enrollment) Paw Score,"MTX 1.5 mg/kg PO, Day 10, individual animals",6 and 5 and 4 and 14 and 10 and 8
same,"% inhibition to Vehicle, Summed Prophylactic (Non-Enrollment) Paw Score","MTX 1.5 mg/kg PO, Day 11",16%
